# Values of other authors, collected in article PMC12440824, “Chimeric deubiquitinase engineering reveals structural basis for specific inhibition of the mitophagy regulator USP30” (Nature Structural & Molecular Biology, 2025).
# Like-named read-outs stand apart in the source and are kept apart here.
# Tests used:
# recombinant USP30 = details: literature values in Extended Data Fig. 1; ref Extended Data Fig. 1; read-out: Ub-Rho IC50; cited from earlier work
# USP30 [1] = details: literature values in Fig. 1b / Extended Data Fig. 1; ref Extended Data Fig. 1; read-out: Cellular ABPP IC50; cited from earlier work
# USP30 [2] = tested on: USP30; parameters: method as in Extended Data Fig. 1; details: ref Extended Data Fig. 1; read-out: Tetra-Ub cleavage IC50; cited from earlier work
structure (smiles),measurement,setting,value
COc1cc(NC(=O)[C@H](Cc2ccccc2)NC(=O)c2ccc(F)cc2)ccc1S(=O)(=O)NC1CCOCC1 [I-150],IC50,recombinant USP30,< 50 nM
N#Cc1cccc(-c2nnc(C(=O)NC3CC(CF)N(C#N)C3)o2)c1 (stereo not shown) [Example 3],IC50,recombinant USP30,13 nM
N#CN1CC[C@@H](NC(=O)c2cc(-c3ccccc3Oc3ccccc3)n[nH]2)C1 [FT385],IC50,recombinant USP30,2 nM
same,IC50,USP30 [1],~60 nM
CC(C)(C)NS(=O)(=O)c1cccc2c(NC(=O)[C@H](Cc3ccccc3)NC(=O)C3CCCCC3)cccc12 [MF-094],IC50,recombinant USP30,120 nM
same,IC50,USP30 [1],< 200 nM
C=C1C(=O)C23CCC1CC2C12CCCC(C)(COC1=O)C2CC3O (stereo not shown) [S3],IC50,USP30 [2],10000 to 50000 nM
